Data on seven compounds can be found in BindingDB's records for doi:10.1021/jm0702377 (University of Liverpool, 2007).

The experiment has as its target T1, Alpha-methylacyl-CoA racemase (Rattus norvegicus, UniProt P70473).
T1 sequence (P70473 whole entry): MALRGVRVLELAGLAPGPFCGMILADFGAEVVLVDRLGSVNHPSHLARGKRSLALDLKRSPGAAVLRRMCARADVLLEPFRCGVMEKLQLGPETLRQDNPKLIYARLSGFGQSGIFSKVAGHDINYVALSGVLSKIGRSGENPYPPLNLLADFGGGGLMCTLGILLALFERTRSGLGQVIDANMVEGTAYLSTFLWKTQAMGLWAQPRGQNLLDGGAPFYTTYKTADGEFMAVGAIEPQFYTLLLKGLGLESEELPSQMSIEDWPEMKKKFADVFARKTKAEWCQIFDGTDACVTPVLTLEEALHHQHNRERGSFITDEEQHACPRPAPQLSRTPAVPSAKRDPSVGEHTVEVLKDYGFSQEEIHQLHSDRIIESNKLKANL
The experiment is described as follows: AMACR Inhibition Assay. Conditions: pH 7; 37 °C. As for the experimental part: AMACR activity was determined by monitoring the interconversion of the (25R/S)-isomer of THC-CoA. Reaction product was analyzed by resolution of (25S)-or (25R)-THC-CoA using HPLC, which was carried out with a reversed-phase C18-column and a linear gradient of methanol in potassium phosphate buffer (50 mM, pH 5.3). Kinetic parameters were determined using direct linear plot analysis.
What is called Ki is the equilibrium dissociation constant of an inhibitor or competing ligand from its target. Read a high Ki as lower affinity. The compound `CCCCCCC(C)C(=O)SCCNC(=O)CCNC(=O)C(O)C(C)(C)COP(=O)(O)OP(=O)(O)OC[C@H]1O[C@@H](n2cnc3c(N)ncnc32)[C@H](O)[C@@H]1OP(=O)(O)O` (stereo partly drawn) [{[(2R,3S,4R,5R)-5-(6-amino-9H-purin-9-yl)-4-hydroxy-2-({[hydroxy({[hydroxy(3-hydroxy-2,2-dimethyl-3-{[2-({2-[(2-methyloctanoyl)sulfanyl]ethyl}carbamoyl)ethyl]carbamoyl}propoxy)phosphoryl]oxy})phosphoryl]oxy}methyl)oxolan-3-yl]oxy}phosphonic acid] gave an inhibitory constant (Ki) of 45 µM.

Consider `CCCCCCCCCCCCCC(C(=O)SCCNC(=O)CCNC(=O)C(O)C(C)(C)COP(=O)(O)OP(=O)(O)OC[C@H]1O[C@@H](n2cnc3c(N)ncnc32)[C@H](O)[C@@H]1OP(=O)(O)O)C(F)F` (some centres not stated) [2-Difluoromethylpentadecanoyl-CoA, 4], for which affinity was put at a Ki of 20 µM.

Turning to `C[C@@H](CC[C@H](F)[C@@H](C)C(=O)SCCNC(=O)CCNC(=O)C(O)C(C)(C)COP(=O)(O)OP(=O)(O)OC[C@H]1O[C@@H](n2cnc3c(N)ncnc32)[C@H](O)[C@@H]1OP(=O)(O)O)[C@H]1CC[C@H]2[C@@H]3[C@H](O)C[C@@H]4C[C@H](O)CC[C@]4(C)[C@H]3C[C@H](O)[C@]12C` (some centres not stated) [THC-CoA Analogue, 7], the Ki came out at 3.8 µM.

As to `CCCCCCCCCCCCC[C@H](F)[C@@H](C)C(=O)SCCNC(=O)CCNC(=O)C(O)C(C)(C)COP(=O)(O)OP(=O)(O)OC[C@H]1O[C@@H](n2cnc3c(N)ncnc32)[C@H](O)[C@@H]1OP(=O)(O)O` (stereo partly drawn) [((2R,3S)-3-Fluoro-2-methylhexadecanoyl-CoA, 5], the Ki was determined as 1.3 µM.

The compound `CCCCCCCCCCCCC[C@@H](F)[C@H](C)C(=O)SCCNC(=O)CCNC(=O)C(O)C(C)(C)COP(=O)(O)OP(=O)(O)OC[C@H]1O[C@@H](n2cnc3c(N)ncnc32)[C@H](O)[C@@H]1OP(=O)(O)O` (stereo partly drawn) [(2S,3R)-3-fluoro-2-methylhexadecanoyl-CoA, 6] displayed a Ki of 2.3 µM.

In turn, `CCCCCCCCCCCCC(C)C(=O)SCCNC(=O)CCNC(=O)C(O)C(C)(C)COP(=O)(O)OP(=O)(O)OC[C@H]1O[C@@H](n2cnc3c(N)ncnc32)[C@H](O)[C@@H]1OP(=O)(O)O` (some centres not stated) [2-methylmyristoyl CoA, 22] displayed a Ki of 137 µM.

`CCCCCCCCCCCCC(C(=O)SCCNC(=O)CCNC(=O)C(O)C(C)(C)COP(=O)(O)OP(=O)(O)OC[C@H]1O[C@@H](n2cnc3c(N)ncnc32)[C@H](O)[C@@H]1OP(=O)(O)O)C(F)(F)F` (some centres not stated) [2-Trifluoromethyltetradecanoyl-CoA, 3] registered a Ki of 0.9 µM.
